Measurements as given in US20230212210A1 (priority 2020, published 2023).

Columns and labels:
DC-SIGN = target: T1, DC-SIGN (Homo sapiens, UniProt Q9NNX6); test: Binding of DC-SIGN to an HMO chip; conditions: Cy3-labelled DC-SIGN
T1 sequence (Q9NNX6 1-404): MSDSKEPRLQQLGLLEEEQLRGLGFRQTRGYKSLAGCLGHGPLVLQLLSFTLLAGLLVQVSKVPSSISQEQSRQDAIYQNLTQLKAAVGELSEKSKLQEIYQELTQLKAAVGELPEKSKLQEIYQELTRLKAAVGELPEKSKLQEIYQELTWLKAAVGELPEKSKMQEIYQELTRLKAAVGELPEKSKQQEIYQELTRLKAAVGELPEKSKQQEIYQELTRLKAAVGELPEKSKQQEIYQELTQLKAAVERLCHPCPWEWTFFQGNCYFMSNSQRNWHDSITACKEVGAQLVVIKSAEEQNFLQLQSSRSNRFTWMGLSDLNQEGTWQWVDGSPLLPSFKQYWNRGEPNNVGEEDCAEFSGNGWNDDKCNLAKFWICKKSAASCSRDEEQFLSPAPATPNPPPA

S1 subunit of SARS-CoV-2 = S1 subunit of SARS-CoV-2 (Severe acute respiratory syndrome coronavirus 2, UniProt P0DTC2)
[1] = target: S1 subunit (the S1 protein) of SARS-CoV-2 binding to lung epithelial cells (BEAS-2B cells) (Severe acute respiratory syndrome coronavirus 2, UniProt P0DTC2); format: cell-based; conditions: fixed cells pre-incubated with sugar chain 1 h, S1 subunit 1 μM
[2] = target: S1 subunit (the S1 protein) of SARS-CoV-2 binding to 16HBE cells (bronchial epithelial cells) (Severe acute respiratory syndrome coronavirus 2, UniProt P0DTC2); format: cell-based; conditions: 40 μM chondroitin sulfate, 20 μM fucoidan, 1 h pre-incubation; confocal microscopy
[3] = target: S1 subunit (the S1 protein) of SARS-CoV-2 binding to African green monkey kidney cells (Vero-E6 cells) (Severe acute respiratory syndrome coronavirus 2, UniProt P0DTC2); format: cell-based; conditions: fixed cells pre-incubated with sugar chain 1 h, S1 subunit 1 μM
[4] = tested on: SARS-CoV-2 pseudovirus in Vero-E6 cells; format: cell-based

CC(=O)N[C@H]1[C@H](O[C@H]2[C@@H](O)[C@@H](CO)O[C@@H](O[C@H]3[C@H](O)[C@@H](O)C(O)O[C@@H]3CO)[C@@H]2O)O[C@H](CO)[C@@H](O[C@@H]2O[C@@H](C)[C@@H](O)[C@@H](O)[C@@H]2O)[C@@H]1O[C@@H]1O[C@H](CO)[C@H](O)[C@H](O)[C@H]1O (stereo partly drawn) [HMO13, Galβ1-3(Fucα1-4)GlcNAcβ1-3Galβ1-4Glc]
Binding of DC-SIGN to an HMO chip, RFU (DC-SIGN): 1896.5 RFU

CC(=O)N[C@H]1[C@H](O[C@H]2[C@@H](O)[C@@H](CO)O[C@@H](O[C@H]3[C@H](O)[C@@H](O)C(O)O[C@@H]3CO)[C@@H]2O)O[C@H](CO)[C@@H](O[C@@H]2O[C@H](CO)[C@H](O)[C@H](O)[C@H]2O)[C@@H]1O[C@@H]1O[C@@H](C)[C@@H](O)[C@@H](O)[C@@H]1O (stereo partly drawn) [HMO14, Galβ1-4(Fucα1-3)GlcNAcβ1-3Galβ1-4Glc]
Binding of DC-SIGN to an HMO chip, RFU (DC-SIGN): 2125.34 RFU

CC(=O)N[C@@H]1[C@@H](O[C@@H]2O[C@H](CO)[C@H](O)[C@H](O)[C@H]2O)[C@@H](O)[C@@H](CO[C@@H]2O[C@H](CO)[C@@H](O)[C@H](O)[C@H]2NC(C)=O)O[C@@H]1O [O23, GlcNAcβ1-6(Galβ1-3)GalNAcα]
Binding of the S1 subunit of a virus to an O-sugar chain chip, RFU (S1 subunit of SARS-CoV-2): 69.84 RFU

CC(=O)N[C@@H]1[C@@H](O[C@@H]2O[C@H](CO)[C@@H](O[C@@H]3O[C@H](CO)[C@H](O)[C@H](O)[C@H]3O[C@@H]3O[C@@H](C)[C@@H](O)[C@@H](O)[C@@H]3O)[C@H](O[C@@H]3O[C@@H](C)[C@@H](O)[C@@H](O)[C@@H]3O)[C@H]2NC(C)=O)[C@@H](O)[C@@H](CO)O[C@@H]1O [O33, Fucα1-2Galβ1-4(Fucα1-3)GlcNAcβ1-3GalNAcα]
Binding of the S1 subunit of a virus to an O-sugar chain chip, RFU (S1 subunit of SARS-CoV-2): 6320.17 RFU

CC(=O)N[C@@H]1[C@@H](O[C@@H]2O[C@H](CO)[C@@H](O)[C@H](O)[C@H]2NC(C)=O)[C@@H](O)[C@@H](CO[C@@H]2O[C@H](CO)[C@@H](O)[C@H](O)[C@H]2NC(C)=O)O[C@@H]1O [O39, GlcNAcβ1-6(GlcNAcβ1-3)GalNAcα]
Binding of the S1 subunit of a virus to an O-sugar chain chip, RFU (S1 subunit of SARS-CoV-2): 136.5 RFU

Fucα1-2Gal 1-4GlcNAcβ1-3Galβ1-4Glc [HMO15]
Binding of DC-SIGN to an HMO chip, RFU (DC-SIGN): 1683.84 RFU

Fucα1-2Galβ1-4(Fucα1-3)GlcNAcβ1-3Gal 1-4Glc [HMO16]
Binding of DC-SIGN to an HMO chip, RFU (DC-SIGN): 2537.92 RFU

Fucα1-2Galβ1-4(Fucα1-3)GlcNAcβ1-3Galβ1-3GalNAcα [O20]
Binding of the S1 subunit of a virus to an O-sugar chain chip, RFU (S1 subunit of SARS-CoV-2): 304.5 RFU

Fucα1-2Galβ1-4(Fucα1-3)GlcNAcβ1-6(Fucα1-2Galβ1-4(Fucα1-3)GlcNAcβ1-3)Galβ1-4Glc [HMO46]
Binding of DC-SIGN to an HMO chip, RFU (DC-SIGN): 2425.92 RFU

Fucα1-2Galβ1-4Glc [HMO3]
Binding of DC-SIGN to an HMO chip, RFU (DC-SIGN): 2930.75 RFU

Fucα1-2Galβ1-4GlcNAcβ1-6(Fucα1-2Galβ1-4GlcNAcβ1-3)Galβ1-4Glc [HMO45]
Binding of DC-SIGN to an HMO chip, RFU (DC-SIGN): 838.42 RFU

Galα1-3(Fucα1-2)Galβ1-4GlcNAcβ1-3NAcα [O36]
Binding of the S1 subunit of a virus to an O-sugar chain chip, RFU (S1 subunit of SARS-CoV-2): 320.5 RFU

Galβ1-4(Fucα1-3)Glc [HMO2]
Binding of DC-SIGN to an HMO chip, RFU (DC-SIGN): 2329.09 RFU

Galβ1-4(Fucα1-3)GlcNAcβ1-6(Galβ1-4GlcNAcβ1-3)Gal 1-4Glc [HMO43]
Binding of DC-SIGN to an HMO chip, RFU (DC-SIGN): 1196.59 RFU

Galβ1-4(Fucα1-3)GlcNAcβ1-6(GlcNAcβ1-3)Gal 1-4Glc [HMO36]
Binding of DC-SIGN to an HMO chip, RFU (DC-SIGN): 1707.42 RFU

Galβ1-4GlcNAcβ1-6(Fucα1-2Gal 1-4GlcNAcβ1-3)Gal 1-4Glc [HMO40]
Binding of DC-SIGN to an HMO chip, RFU (DC-SIGN): 801.5 RFU

GlcNAcβ1-6[Fucα1-2Galβ1-4(Fucα1-3)GlcNAcβ1-3]Galβ1-4Glc [HMO33]
Binding of DC-SIGN to an HMO chip, RFU (DC-SIGN): 1913.59 RFU

GlcNAcβ1-6[Galβ1-4(Fucα1-3)GlcNAcβ1-3]Galβ1-4Glc [HMO31]
Binding of DC-SIGN to an HMO chip, RFU (DC-SIGN): 2175.59 RFU

Neu5Acα2-3Galβ1-4GlcNAcβ1-3GalNAcα [O29]
Binding of the S1 subunit of a virus to an O-sugar chain chip, RFU (S1 subunit of SARS-CoV-2): 2866.34 RFU

Neu5Acα2-6Galβ1-4GlcNAcβ1-3(Neu5Acα2-6Galβ1-3GlcNAcβ1-6)GalNAcα [O83]
Binding of the S1 subunit of a virus to an O-sugar chain chip, RFU (S1 subunit of SARS-CoV-2): 6012.67 RFU

fucoidan
blocking of the binding of the S1 subunit to BEAS-2B cells [1]: can block | blocking of the binding of the S1 protein to bronchial epithelial cells (16HBE) [2]: successfully block | blocking of the binding of the S1 subunit to Vero-E6 cells [3]: can block | inhibition activity to pseudovirus invasion and infection of the cells [4]: exhibit an inhibition activity

nadroparin calcium
blocking of the binding of the S1 subunit to BEAS-2B cells [1]: can block | blocking of the binding of the S1 subunit to Vero-E6 cells [3]: can block | inhibition activity to pseudovirus invasion and infection of the cells [4]: exhibit an inhibition activity

sodium chondroitin sulfate
blocking of the binding of the S1 protein to bronchial epithelial cells (16HBE) [2]: successfully block

sodium heparin sulfate
blocking of the binding of the S1 subunit to BEAS-2B cells [1]: can block | blocking of the binding of the S1 subunit to Vero-E6 cells [3]: can block
